# Patent US7217724B2, “Indole, indazole, and benzazole derivative” (Dainippon Sumitomo Pharma Co., Ltd., priority 2002, dated 2007)
# pEC50: −log10 of the molar value. Counter-ions that a name gives are not always drawn.
# Legend:
# human β3-receptor = biological target: T1, human β3-receptor (Homo sapiens, UniProt P13945); experiment: Human β3-receptor stimulation test (cAMP production in SK-N-MC cells); format: cell-based; conditions: in the presence of β1-receptor inhibitor CGP-20712A 10^−6 M, read-out: EC50 value of β3-stimulating activity
# T1 construct: SK-N-MC cell line, i.e., cells permanently expressing human β3- and human β1-receptors; host or cells: SK-N-MC cells
# Description: (§1) Human β3, β2 and β1-receptor stimulation test
# (§2) Human β3-receptor-stimulating activity was studied using SK-N-MC cell line, i.e., cells permanently expressing human β3- and human β1-receptors (SK-N-MC cells, purchased from Dainippon Pharmaceutical Co., Ltd.), and human β2- and β1-receptor-stimulating activities were studied using THP-1 cell line, i.e., cells expressing both human β2- and β1-receptors (THP-1 cells, purchased Dainippon Pharmaceutical Co., Ltd.).
# (§3) The β3-receptor stimulating activity of a test compound (10^−9 to 10^−5 M) was studied using as an index cyclic AMP (hereinafter, referred to as cAMP) producing activity of SK-N-MC cells at almost confluent in the presence of a β1-receptor inhibitor ((±)-2-hydroxy-5-(2-((2-hydroxy-3-(4-(1-methyl-4-(trifluoromethyl)-1H-imidazol-2-yl)phenoxy)propyl)-amino)ethoxy)benzamide methanesulfonate, CGP-20712A (Sigma-Aldrich), 10^−6M), wherein said SK-N-MC cells were seeded into a 96-well plate at a cell density of 2×10^4 cells/well and had been cultured for 3 days. […] The cAMP production in the cells was measured by ELISA method. […]
# human β2-receptor = biological target: T2, human β2-receptor (Homo sapiens, UniProt P07550); experiment: Human β2-receptor stimulation test (cAMP production in THP-1 cells); format: cell-based; conditions: with CGP-20712A, activity not observed up to a maximum concentration, read-out: β2-stimulating activity
# T2 construct: THP-1 cell line, i.e., cells expressing both human β2- and β1-receptors; host or cells: THP-1 cells
# Description: as §1, §2, §3
# human β1-receptor = biological target: T3, human β1-receptor (Homo sapiens, UniProt P08588); experiment: Human β1-receptor stimulation test (cAMP production in THP-1 cells); format: cell-based
# T3 construct: THP-1 cell line, i.e., cells expressing both human β2- and β1-receptors; host or cells: THP-1 cells
# Description: as §1, §2, §3
# β1-adrenoceptor = experiment: Autonomic beat of the excised right atrium specimen (positive chronotropic action, Magnus method); design: species or system Hartley guinea pig; conditions: method of Experiment 2
# Experimental: Effect of a medicament on autonomic beat of the excised right atrium specimen based on β1-adrenoceptor-stimulating activity (study on positive chronotropic action)
# The heart of Hartley guinea pig was excised, and a right atrium specimen was prepared therefrom and the experiment was carried out thereon according to Magnus method. The specimen was hung at 34° C. in Krebs-Henseleit solution to which a mixed gas of 95% oxygen and 5% carbon dioxide was aerated, and loaded so that the maximum resting tension became about 0.5 g. The autonomic beat of the right atrium was detected through a pressure transducer, and the tension and the beat were continuously recorded onto a linear recorder. A medicament was cumulatively added every time the beat became plateau. […]
# In order to show the divergence between β3-stimulating activity/β1-stimulating activity in the experimental results, the EC50 value of positive chronotropic action of the test compound of Examples obtained in Experiment 2 was divided by the EC50 value of human β3-stimulating activity of said compound obtained in Experiment 1, which is the main activity in Experiment 1. The results are expressed by relative values, which are calculated by counting the value of the reference compound (AJ 9677) as 1.
# T3 sequence (P08588 whole entry): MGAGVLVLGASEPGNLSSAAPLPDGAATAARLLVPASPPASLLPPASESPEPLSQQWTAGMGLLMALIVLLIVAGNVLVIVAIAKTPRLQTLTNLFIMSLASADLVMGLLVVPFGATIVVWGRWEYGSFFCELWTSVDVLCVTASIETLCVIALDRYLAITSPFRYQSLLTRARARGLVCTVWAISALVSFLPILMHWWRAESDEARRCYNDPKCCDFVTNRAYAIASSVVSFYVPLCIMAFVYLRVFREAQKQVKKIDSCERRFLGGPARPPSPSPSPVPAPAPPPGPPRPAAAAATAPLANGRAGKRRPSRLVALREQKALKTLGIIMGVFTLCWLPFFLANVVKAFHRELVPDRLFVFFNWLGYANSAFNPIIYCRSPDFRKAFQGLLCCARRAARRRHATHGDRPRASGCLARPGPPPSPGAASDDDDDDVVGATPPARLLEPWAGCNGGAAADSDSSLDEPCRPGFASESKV
# T2 sequence (P07550 whole entry): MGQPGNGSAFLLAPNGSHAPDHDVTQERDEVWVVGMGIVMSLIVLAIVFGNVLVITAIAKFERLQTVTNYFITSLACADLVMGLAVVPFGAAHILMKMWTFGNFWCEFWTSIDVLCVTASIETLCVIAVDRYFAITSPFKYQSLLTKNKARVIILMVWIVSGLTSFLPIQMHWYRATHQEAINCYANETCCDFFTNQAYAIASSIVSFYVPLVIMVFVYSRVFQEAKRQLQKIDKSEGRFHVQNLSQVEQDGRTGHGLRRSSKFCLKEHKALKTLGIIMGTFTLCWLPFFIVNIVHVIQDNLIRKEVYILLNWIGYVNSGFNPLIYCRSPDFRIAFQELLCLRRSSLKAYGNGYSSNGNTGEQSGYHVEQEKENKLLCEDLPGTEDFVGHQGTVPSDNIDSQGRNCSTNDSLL
# T1 sequence (P13945 whole entry): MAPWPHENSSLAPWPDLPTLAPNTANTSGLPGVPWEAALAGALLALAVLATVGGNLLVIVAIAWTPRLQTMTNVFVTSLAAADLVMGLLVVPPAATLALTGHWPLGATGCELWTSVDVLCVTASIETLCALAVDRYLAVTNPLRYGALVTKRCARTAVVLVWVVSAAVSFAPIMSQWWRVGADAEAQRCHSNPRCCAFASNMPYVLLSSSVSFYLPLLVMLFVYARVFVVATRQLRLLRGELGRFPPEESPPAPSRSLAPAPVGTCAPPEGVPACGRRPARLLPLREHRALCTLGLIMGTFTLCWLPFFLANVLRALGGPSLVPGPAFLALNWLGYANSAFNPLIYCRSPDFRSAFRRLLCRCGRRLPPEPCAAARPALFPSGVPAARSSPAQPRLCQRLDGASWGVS
Compound,pEC50 (human β3-receptor),pEC50 (human β2-receptor),"pEC50 (human β1-receptor; THP-1 cells, cAMP production, with ICI-118551, activity not observed up to a maximum concentration, read-out: β1-stimulating activity)","β1- and/or β2-adrenoceptor-stimulating activities in the conventional evaluation system (human β1-receptor; cells, method of Experiment 1 (β1 and β2, THP-1 cells))",β1- and/or β2-adrenoceptor-stimulating activities in the evaluation system using tissues (β1-adrenoceptor)
"C[C@H](Cc1c[nH]c2c(OCC(=O)O)cccc12)NC[C@H](O)c1cccnc1 [Example 2, {3-[(2 R)-2-((2R)-2-Hydroxy-2-pyridin-3-ylethylamino)propyl]-1 H-indol-7-yloxy}acetic acid.2 trifluoroacetate]",7.32,< 5.00,< 5.00,,
"C[C@H](Cc1c[nH]c2c(OCC(=O)O)cccc12)NC[C@H](O)c1cccc(Cl)c1 [AJ 9677, reference compound]",,,,does not exhibit β1- and/or β2-adrenoceptor-stimulating activities,exhibits β1- and/or β2-adrenoceptor-stimulating activities
